Assay results taken from patent US9453026B2, “ACC inhibitors and uses thereof” (Gilead Apollo, Inc., priority 2011, dated 2016).
Read-outs that look alike come from different tables or passages of the source.

Tests used:
[1] = biological target: ACC2 (Homo sapiens, UniProt O00763); assay: In vitro ACC2 inhibition assay (ADP-Glo); type: biochemical
In short: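 Enzyme (human ACC1 or ACC2) and compound, serially diluted 1:3 over 11 points from a 600 uM DMSO stock, were preincubated 15 min before substrate addition.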

[2] = biological target: ACC1 (Homo sapiens, UniProt Q13085); assay: In vitro ACC1 inhibition assay (ADP-Glo); type: biochemical
Procedure: An exemplary procedure for the in vitro ACC inhibition assay, which can be used to determine the inhibitory action of compounds of the invention toward either ACC1 or ACC2, follows. The ADP-Glo™ Kinase Assay kit from Promega was used. The ADP-Glo™ Kinase Assay is a luminescent ADP detection assay to measure enzymatic activity by quantifying the amount of ADP produced during an enzyme reaction. The assay is performed in two steps; first, after the enzyme reaction, an equal volume of ADP-Glo™ Reagent is added to terminate the reaction and deplete the remaining ATP. Second, the Kinase Detection Reagent is added to simultaneously convert ADP to ATP and allow the newly synthesized ATP to be measured using a luciferase/luciferin reaction. Luminescence can be correlated to ADP concentrations by using an ATP-to-ADP conversion curve. The detailed procedure is as follows. 50 μL of the compound being tested (600 uM in DMSO) was added to a 384-well dilution plate. The compound was diluted 1:3 in succession in DMSO for each row for 11 wells. 0.5 μL ACC2 working solution was added to 384-well white Optiplate assay plate. 0.5 μL diluted compound solution in each column from step 2 to assay plate, each row containing 2 replicates. […] The plates were incubated at room temperature for 15 minutes. 5 μL substrate working solution was added to each well to initiate reaction. […] Plates were incubated at room temperature for 60 minutes. 10 μL ADP glo reagent was added. Plates were incubated at room temperature for 40 minutes. 20 μL kinase detection reagent was added.
Data for each concentration, as well as the positive and negative controls were averaged, and the standard deviation calculated. Percent inhibition was calculated by the formula: 100× (average negative control−compound)/(average negative control−average positive control). The IC50 for each compound was calculated by fitting the data with a non-linear regression equation: Y=Bottom+(Top-Bottom)/(1+10^((Log IC50−X)*HillSlope)), where X is the log of compound concentration and Y is percent inhibition.
The compound numbers correspond to the compound numbers in Table 1.

ACC2, sequence (O00763 whole entry, species assumed): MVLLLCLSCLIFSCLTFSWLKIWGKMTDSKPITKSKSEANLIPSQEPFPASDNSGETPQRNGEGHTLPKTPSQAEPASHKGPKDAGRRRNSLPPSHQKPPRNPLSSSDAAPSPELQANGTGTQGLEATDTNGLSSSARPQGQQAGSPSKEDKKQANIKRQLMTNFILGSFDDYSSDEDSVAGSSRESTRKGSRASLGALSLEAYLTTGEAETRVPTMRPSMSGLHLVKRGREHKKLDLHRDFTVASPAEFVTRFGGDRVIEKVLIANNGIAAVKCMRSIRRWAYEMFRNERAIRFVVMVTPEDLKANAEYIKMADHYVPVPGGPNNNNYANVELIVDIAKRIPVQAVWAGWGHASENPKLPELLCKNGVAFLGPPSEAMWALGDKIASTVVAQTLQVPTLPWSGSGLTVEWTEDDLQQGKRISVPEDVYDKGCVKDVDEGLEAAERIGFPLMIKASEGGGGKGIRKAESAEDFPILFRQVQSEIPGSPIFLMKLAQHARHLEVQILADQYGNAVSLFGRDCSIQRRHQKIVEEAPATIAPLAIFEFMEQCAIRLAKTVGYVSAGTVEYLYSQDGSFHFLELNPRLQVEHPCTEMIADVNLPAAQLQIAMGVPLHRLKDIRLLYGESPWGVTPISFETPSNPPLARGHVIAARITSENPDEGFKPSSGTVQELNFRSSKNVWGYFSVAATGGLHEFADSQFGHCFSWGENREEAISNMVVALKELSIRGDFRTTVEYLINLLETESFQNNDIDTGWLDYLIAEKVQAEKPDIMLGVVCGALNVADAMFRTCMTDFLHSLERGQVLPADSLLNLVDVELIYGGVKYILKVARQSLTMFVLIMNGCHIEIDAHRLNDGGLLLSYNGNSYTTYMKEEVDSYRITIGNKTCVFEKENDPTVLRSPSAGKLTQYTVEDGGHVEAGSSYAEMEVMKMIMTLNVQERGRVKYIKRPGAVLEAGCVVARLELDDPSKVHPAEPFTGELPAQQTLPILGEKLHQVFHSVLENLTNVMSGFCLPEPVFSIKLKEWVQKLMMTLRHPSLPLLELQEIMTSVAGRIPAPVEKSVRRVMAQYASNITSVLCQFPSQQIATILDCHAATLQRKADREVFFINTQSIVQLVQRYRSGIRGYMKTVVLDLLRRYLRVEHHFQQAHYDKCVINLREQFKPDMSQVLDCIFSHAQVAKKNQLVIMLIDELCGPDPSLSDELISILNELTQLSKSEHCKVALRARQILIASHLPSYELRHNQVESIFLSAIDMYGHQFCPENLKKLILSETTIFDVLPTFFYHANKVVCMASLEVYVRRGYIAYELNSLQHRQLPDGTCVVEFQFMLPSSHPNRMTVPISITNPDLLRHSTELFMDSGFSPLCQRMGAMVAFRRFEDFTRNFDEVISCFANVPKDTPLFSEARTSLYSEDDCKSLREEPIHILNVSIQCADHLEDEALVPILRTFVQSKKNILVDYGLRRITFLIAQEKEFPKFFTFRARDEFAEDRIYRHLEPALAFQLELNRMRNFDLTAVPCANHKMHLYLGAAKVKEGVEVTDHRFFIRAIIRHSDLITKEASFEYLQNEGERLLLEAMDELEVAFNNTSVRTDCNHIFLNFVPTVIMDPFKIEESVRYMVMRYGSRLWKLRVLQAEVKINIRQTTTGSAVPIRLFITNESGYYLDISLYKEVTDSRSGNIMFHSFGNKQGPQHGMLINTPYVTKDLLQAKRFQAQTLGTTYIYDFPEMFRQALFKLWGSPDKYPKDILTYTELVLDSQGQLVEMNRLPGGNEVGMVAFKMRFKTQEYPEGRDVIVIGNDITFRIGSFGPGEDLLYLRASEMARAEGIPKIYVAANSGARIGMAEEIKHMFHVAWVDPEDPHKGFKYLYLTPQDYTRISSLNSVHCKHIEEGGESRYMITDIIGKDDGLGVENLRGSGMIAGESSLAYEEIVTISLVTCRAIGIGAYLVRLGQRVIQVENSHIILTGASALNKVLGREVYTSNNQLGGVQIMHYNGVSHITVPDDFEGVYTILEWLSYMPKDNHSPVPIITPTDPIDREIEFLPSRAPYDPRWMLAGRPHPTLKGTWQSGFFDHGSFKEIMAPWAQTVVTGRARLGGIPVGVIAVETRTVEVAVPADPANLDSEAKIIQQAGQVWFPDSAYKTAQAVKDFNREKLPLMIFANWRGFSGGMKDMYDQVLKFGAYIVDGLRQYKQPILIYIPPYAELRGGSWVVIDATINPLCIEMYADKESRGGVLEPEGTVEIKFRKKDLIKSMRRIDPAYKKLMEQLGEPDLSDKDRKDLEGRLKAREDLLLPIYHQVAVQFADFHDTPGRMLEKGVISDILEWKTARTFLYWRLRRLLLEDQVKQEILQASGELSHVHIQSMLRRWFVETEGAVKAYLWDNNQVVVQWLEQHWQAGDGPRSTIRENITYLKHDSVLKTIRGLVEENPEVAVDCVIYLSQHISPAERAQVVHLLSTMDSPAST

IC50 ([1]; read-out: ACC2) [nM] | IC50 ([2]; read-out: ACC1) [nM] | IC50 [1] [nM] | IC50 [2] [nM] | Compound
< 100 | < 100 | – | – | Cc1c(-c2ncco2)sc2c1c(=O)n(C(C)(C)C(N)=O)c(=O)n2C[C@H](OC1CCOCC1)c1ccccc1OC(F)F [I-274, 2-[1-[(2R)-2-[2-(difluoromethoxy)phenyl]-2-(oxan-4-yloxy)ethyl]-5-methyl-6-(1,3-oxazol-2-yl)-2,4-dioxo-1H,2H,3H,4H-thieno[2,3-d]pyrimidin-3-yl]-2-methylpropanamide]
< 100 | < 100 | – | – | Cc1ccccc1[C@H](Cn1c(=O)n(C(C)(C)C(=O)O)c(=O)c2c(C)c(-c3ncco3)sc21)OC1CCOCC1 [I-282, 2-methyl-2-[5-methyl-1-[(2R)-2-(2-methylphenyl)-2-(oxan-4-yloxy)ethyl]-6-(1,3-oxazol-2-yl)-2,4-dioxo-1H,2H,3H,4H-thieno[2,3-d]pyrimidin-3-yl]propanoic acid]
< 1000 | < 1000 | – | – | CCOC(=O)c1sc2c(c1C)c(=O)n(C(C)(C)C(=O)O)c(=O)n2CCc1ccccc1OC [I-93, 2-[6-(ethoxycarbonyl)-1-[2-(2-methoxyphenyl)ethyl]-5-methyl-2,4-dioxo-1H,2H,3H,4H-thieno[2,3-d]pyrimidin-3-yl]-2-methylpropanoic acid]
< 100 | < 100 | – | – | COc1ccccc1[C@H](Cn1c(=O)n(C(C)(C)C(=O)O)c(=O)c2c(C)c(-c3ncco3)sc21)OC[C@@H](C)O [I-258, 2-[1-[(2R)-2-[(2R)-2-hydroxypropoxy]-2-(2-methoxyphenyl)ethyl]-5-methyl-6-(1,3-oxazol-2-yl)-2,4-dioxo-1H,2H,3H,4H-thieno[2,3-d]pyrimidin-3-yl]-2-methylpropanoic acid]
< 1000 | < 1000 | – | – | CCOc1ccccc1CCn1c(=O)n(C(C)(C)C(N)=O)c(=O)c2c(C)c(-c3ncco3)sc21 [I-139, 2-[1-[2-(2-ethoxyphenyl)ethyl]-5-methyl-6-(1,3-oxazol-2-yl)-2,4-dioxo-1H,2H,3H,4H-thieno[2,3-d]pyrimidin-3-yl]-2-methylpropanamide]
< 1000 | < 100 | – | – | CCOC(=O)c1sc2c(c1C)c(=O)n(CC(N)=O)c(=O)n2C[C@H](OC(C)C)c1ccccc1 [I-112, ethyl 3-(carbamoylmethyl)-5-methyl-2,4-dioxo-1-[(2R)-2-phenyl-2-(propan-2-yloxy)ethyl]-1H,2H,3H,4H-thieno[2,3-d]pyrimidine-6-carboxylate]
< 1000 | < 1000 | – | – | CCOC(=O)c1sc2c(c1C)c(=O)n(CC(=O)O)c(=O)n2CC(OC(C)C)c1ccccc1 (centres unmarked) [I-89, 2-[6-(ethoxycarbonyl)-5-methyl-2,4-dioxo-1-[2-phenyl-2-(propan-2-yloxy)ethyl]-1H,2H,3H,4H-thieno[2,3-d]pyrimidin-3-yl]acetic acid]
< 100 | < 100 | – | – | CCOc1ccccc1[C@H](Cn1c(=O)n(C(C)(C)C(=O)O)c(=O)c2c(C)c(-c3ncco3)sc21)OCCO [I-256, 2-[1-[(2R)-2-(2-ethoxyphenyl)-2-(2-hydroxyethoxy)ethyl]-5-methyl-6-(1,3-oxazol-2-yl)-2,4-dioxo-1H,2H,3H,4H-thieno[2,3-d]pyrimidin-3-yl]-2-methylpropanoic acid]
< 100 | < 100 | – | – | COc1ccccc1[C@H](Cn1c(=O)n(C(C)(C)C(=O)O)c(=O)c2c(C)c(-c3ncco3)sc21)OCC1CCOCC1 [I-259, 2-[1-[(2R)-2-(2-methoxyphenyl)-2-(oxan-4-ylmethoxy)ethyl]-5-methyl-6-(1,3-oxazol-2-yl)-2,4-dioxo-1H,2H,3H,4H-thieno[2,3-d]pyrimidin-3-yl]-2-methylpropanoic acid]
< 100 | < 100 | – | – | Cc1c(-c2ncco2)sc2c1c(=O)n(C(C)(C)C(=O)O)c(=O)n2C[C@@H](OC1CCOCC1)c1ccccc1CC#N [I-303, (S)-2-(1-(2-(2-(cyanomethyl)phenyl)-2-((tetrahydro-2H-pyran-4-yl)oxy)ethyl)-5-methyl-6-(oxazol-2-yl)-2,4-dioxo-1,2-dihydrothieno[2,3-d]pyrimidin-3(4H)-yl)-2-methylpropanoic acid]
< 1000 | < 100 | – | – | CCOC(=O)c1sc2c(c1C)c(=O)n(C(C)(C)C(=O)O)c(=O)n2C[C@H](O[C@H](C)CC)c1ccccc1 [I-130, 2-[1-[(2R)-2-[(2R)-butan-2-yloxy]-2-phenylethyl]-6-(ethoxycarbonyl)-5-methyl-2,4-dioxo-1H,2H,3H,4H-thieno[2,3-d]pyrimidin-3-yl]-2-methylpropanoic acid]
< 100 | < 100 | – | – | Cc1c(-c2ncco2)sc2c1c(=O)n(C(C)(C)C(N)=O)c(=O)n2C[C@H](OC(C)C)c1ccccc1OC(F)F [I-268, 2-[1-[(2R)-2-[2-(difluoromethoxy)phenyl]-2-(propan-2-yloxy)ethyl]-5-methyl-6-(1,3-oxazol-2-yl)-2,4-dioxo-1H,2H,3H,4H-thieno[2,3-d]pyrimidin-3-yl]-2-methylpropanamide]
< 5000 | < 5000 | – | – | CCOC(=O)c1sc2c(c1C)c(=O)n(CC(=O)O)c(=O)n2CC(O)c1ccccc1 (centres unmarked) [I-60, 2-[6-(ethoxycarbonyl)-1-(2-hydroxy-2-phenylethyl)-5-methyl-2,4-dioxo-1H,2H,3H,4H-thieno[2,3-d]pyrimidin-3-yl]acetic acid]
– | – | < 100 | < 100 | [2H]C([2H])([2H])Oc1ccccc1[C@H](Cn1c(=O)n(C(C)(C)C(=O)O)c(=O)c2c(C)c(-c3ncco3)sc21)OC1CCOCC1 [I-271, 2-[1-[(2R)-2-[2-(d3)methoxyphenyl]-2-(oxan-4-yloxy)ethyl]-5-methyl-6-(1,3-oxazol-2-yl)-2,4-dioxo-1H,2H,3H,4H-thieno[2,3-d]pyrimidin-3-yl]-2-methylpropanoic acid]
< 100 | < 100 | – | – | CCOc1ccccc1[C@H](Cn1c(=O)n(C(C)(C)C(=O)O)c(=O)c2c(C)c(-c3ncco3)sc21)OC(C)C [I-177, 2-[1-[(2R)-2-(2-ethoxyphenyl)-2-(propan-2-yloxy)ethyl]-5-methyl-6-(1,3-oxazol-2-yl)-2,4-dioxo-1H,2H,3H,4H-thieno[2,3-d]pyrimidin-3-yl]-2-methylpropanoic acid]
< 5000 | < 5000 | – | – | CCOC(=O)c1sc2c(c1C)c(=O)n(CC(=O)O)c(=O)n2CCc1ccccc1F [I-32, 2-[6-(ethoxycarbonyl)-1-[2-(2-fluorophenyl)ethyl]-5-methyl-2,4-dioxo-1H,2H,3H,4H-thieno[2,3-d]pyrimidin-3-yl]acetic acid]
< 1000 | < 1000 | – | – | Cc1c(-c2ncco2)sc2c1c(=O)n(C(C)(C)C(=O)O)c(=O)n2CC(Oc1ccccc1)c1ccccc1 (stereo in doubt) [I-143, 2-methyl-2-[5-methyl-6-(1,3-oxazol-2-yl)-2,4-dioxo-1-[(2S)-2-phenoxy-2-phenylethyl]-1H,2H,3H,4H-thieno[2,3-d]pyrimidin-3-yl]propanoic acid]
< 5000 | < 5000 | – | – | CCOC(=O)c1sc2c(c1C)c(=O)n(CC(=O)O)c(=O)n2CCc1ccccc1Cl [I-31, 2-[1-[2-(2-chlorophenyl)ethyl]-6-(ethoxycarbonyl)-5-methyl-2,4-dioxo-1H,2H,3H,4H-thieno[2,3-d]pyrimidin-3-yl]acetic acid]
< 100 | < 100 | – | – | COc1ccccc1[C@H](Cn1c(=O)n(C(C)(C)C(=O)O)c(=O)c2c(C)c(-c3ncco3)sc21)O[C@H]1CC[C@H](O)CC1 [I-277, 2-[1-[(2R)-2-[(4-hydroxycyclohexyl)oxy]-2-(2-methoxyphenyl)ethyl]-5-methyl-6-(1,3-oxazol-2-yl)-2,4-dioxo-1H,2H,3H,4H-thieno[2,3-d]pyrimidin-3-yl]-2-methylpropanoic acid]
< 1000 | < 100 | – | – | CCOC(=O)c1sc2c(c1C)c(=O)n(C(C)(C)C(=O)O)c(=O)n2CCc1ccccc1CC [I-100, 2-[6-(ethoxycarbonyl)-1-[2-(2-ethylphenyl)ethyl]-5-methyl-2,4-dioxo-1H,2H,3H,4H-thieno[2,3-d]pyrimidin-3-yl]-2-methylpropanoic acid]
< 100 | < 100 | – | – | Cc1c(-c2ncco2)sc2c1c(=O)n(C(C)(C)C(=O)O)c(=O)n2C[C@H](O[C@H]1CC[C@@H](O)CC1)c1ccccc1OC(C)C [I-295, 2-(1-((R)-2-(((1s,4S)-4-hydroxycyclohexyl)oxy)-2-(2-isopropoxyphenyl)ethyl)-5-methyl-6-(oxazol-2-yl)-2,4-dioxo-1,2-dihydrothieno[2,3-d]pyrimidin-3(4H)-yl)-2-methylpropanoic]
< 5000 | < 5000 | – | – | CCOC(=O)c1sc2c(c1C)c(=O)n(CCc1nnn[nH]1)c(=O)n2CCc1ccccc1 [I-61]
